Results taken from patent US11028051B2, “Tetrahydroquinoline-based bromodomain inhibitors” (St. Jude Children's Research Hospital, priority 2016, dated 2021).
pEC50, pIC50, pKd: −log10 of the molar value.

Assays:
BRD2-BD1 [1] = target: T1, BRD2-BD1 (Homo sapiens (Human), UniProt P25440); test: competitive TR-FRET assay, BET-BD with acetylated peptide ligand; format: binding; conditions: for pIC50: Table 2, inhibitor potency by TR-FRET; for EC50: Table 4, read-out: EC50 (μM) BRD2(1)
Protocol: (§1) Inhibitor potency was determined using a competitive TR-FRET assay as detailed herein, measuring interaction of the respective BET-BD with an acetylated peptide ligand (Table 2).
Target sequence in this assay (P25440 74-180): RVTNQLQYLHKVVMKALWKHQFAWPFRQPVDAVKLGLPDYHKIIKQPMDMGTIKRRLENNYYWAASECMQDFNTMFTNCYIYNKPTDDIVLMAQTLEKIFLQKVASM

BRD2-BD2 [2] = target: T2, BRD2-BD2 (Homo sapiens (Human), UniProt P25440); test: as above; format: binding; conditions: for pIC50: Table 2, inhibitor potency by TR-FRET; for [2(1)/2(2)]: Table 4, ratio of EC50; for EC50: Table 4, read-out: EC50 (μM) BRD2(2)
Protocol: as §1
Target sequence in this assay (P25440 344-453): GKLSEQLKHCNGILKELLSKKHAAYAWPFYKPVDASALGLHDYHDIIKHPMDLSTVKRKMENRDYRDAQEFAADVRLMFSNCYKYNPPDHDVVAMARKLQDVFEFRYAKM

BRD3-BD1 = BRD3-BD1 (Homo sapiens (Human), UniProt Q15059); test: as above; format: binding; conditions: for pIC50: Table 2, inhibitor potency by TR-FRET; for pEC50: Table 4, read-out: BRD3(1)
Chain of BRD3-BD1 (Q15059 34-140): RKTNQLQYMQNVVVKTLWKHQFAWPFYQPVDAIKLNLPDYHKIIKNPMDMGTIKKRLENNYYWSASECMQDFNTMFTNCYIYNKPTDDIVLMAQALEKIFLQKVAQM
Protocol: as §1

BRD4-BD1 = BRD4-BD1 (Homo sapiens (Human), UniProt O60885); test: as above; format: binding; conditions: for pIC50: Table 2, inhibitor potency by TR-FRET; for EC50: Table 4, read-out: EC50 (μM) BRD4(1)
Protocol: as §1

BRD4-BD2 = BRD4-BD2 (Homo sapiens (Human), UniProt O60885); test: as above; format: binding; conditions: for pIC50: Table 2, inhibitor potency by TR-FRET; for 4(1)/4(2): Table 4, ratio of EC50; for EC50: Table 4, read-out: EC50 (μM) BRD4(2)
Protocol: as §1

BRD2-BD1 [3] = target: T1, BRD2-BD1; test: isothermal titration calorimetry analysis of binding; conditions: ITC; for ΔG / ΔH / −TΔS: BRD2-BD1; for pKd: BRD2-BD1, average of 3 experiments, read-out: average Kd
Protocol: (§2) b. Isothermal Titration Calorimetry Analysis of Binding to Brd2-BD1 and Brd2-BD2
(§3) Binding of compounds to BRD2 was monitored using an ITC200 (Microcal, Piscataway, N.J.). Either Brd2.1 (74-194) or Brd2.2 (348-455) was dialyzed overnight into a solution containing 50 mM HEPES, pH 7.0 and 150 mM NaCl at 15° C. Enzyme concentrations were determined after dialysis by absorbance at 280 nm using a molar extinction coefficient (ε280) of 25,565 M^−1 cm^−1 (2.1) or 16,055 M^−1 cm^−1 (2.2). Enzyme was diluted in dialysis buffer and 39.6 μL was loaded into the syringe. Compounds were dissolved in the same dialysis buffer and loaded in the cell to a volume of 204 μL. Injections were carried out by serial injections of enzyme; first, 1 injection of 1 μL, followed by 19 incremental injections of 2 μL, at 120 second intervals. Data from the first injection was excluded, due to pre-equilibration mixing between the contents of cell and syringe at the syringe tip. Peak areas were integrated, normalized, and then fitted by non-linear regression using the independent sites model in Origin™ (version 2.3.6, Microcal, Piscataway, N.J.).
Target sequence in this assay (P25440 74-194): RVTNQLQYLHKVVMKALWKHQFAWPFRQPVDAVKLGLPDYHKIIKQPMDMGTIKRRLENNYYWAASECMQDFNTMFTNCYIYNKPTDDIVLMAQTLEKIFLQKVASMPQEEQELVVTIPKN

BRD2-BD2 [4] = target: T2, BRD2-BD2; test: as above; conditions: ITC; for ΔG / ΔH / −TΔS: BRD2-BD2; for pKd: BRD2-BD2, average of 3 experiments, read-out: average Kd
Protocol: as §2, §3
Target sequence in this assay (P25440 348-455): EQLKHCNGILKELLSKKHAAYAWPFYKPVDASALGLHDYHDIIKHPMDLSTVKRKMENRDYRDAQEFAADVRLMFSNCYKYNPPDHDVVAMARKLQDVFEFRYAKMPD

BRD2-BD2 [5] = test: as above; conditions: ITC Kd BRD2-BD1 / BRD2-BD2
Protocol: as §2, §3

BRDT = BRDT (Homo sapiens, UniProt Q58F21); test: competitive TR-FRET assay, BET-BD with acetylated peptide ligand; format: binding; conditions: Table 4; read-out: BRDT EC50
Protocol: as §1

HDMB03 cells = test: cell viability, CellTiter-Glo; format: cell-based, human; conditions: Homo sapiens, HD-MB03, Table 5; read-out: EC50 (μM) HDMB03
Protocol: Human G3 medulloblastoma or mouse SHH medulloblastoma cells were grown as neurospheres in supplemented neurobasal medium, as previously described (Kawauchi et al., 2012.)
(§4) After 7 days of treatment, an equal volume of CellTiter-Glo reagent (G7572, Promega) was added and the luminescence signal was measured using an automated Envision plate reader (Perkin-Elmer). Luminescence data were normalized by log10 transformation prior to calculating the percent inhibition using the following equation:
(§5) 100*(negative control mean −compound value)/(negative control mean −positive control mean).
High-throughput assay data were analyzed using Robust Interpretation of Screening Experiments (RISE) application written in Pipeline Pilot (Accelrys, v. 8.5) and the R program (R Development Core Team).
Dose-response curves were calculated by regressing the median percent inhibition obtained over triplicate experiments to log 10-transformed concentrations. Non-linear regression was then performed using the R drc package with the four parameter log-logistic function (LL2.4) (Ritz and Streibig, 2009). Curves were fit under three different constraints: (1) all parameters free, (2) high response fixed to 100, (3) low response fixed to 0; and the best fit from these three nested models was selected using the anova.drc function.

NALM-16 = test: anti-proliferative activity; format: cell-based; conditions: NALM16; Table 5
Protocol: as §4, §5

SEM cells = test: anti-proliferative activity; format: cell-based; conditions: Table 5
Protocol: as §4, §5

[6] = test system: c-Myc expression in HDMB03 cells; test: c-Myc expression inhibition, high content microscopy (HCM); format: cell-based, human; conditions: Homo sapiens, HD-MB03, Table 5; read-out: EC50 (μM) Myc-inhibition
BRD2(1) = BRD2(1) (Homo sapiens (Human), UniProt P25440); test: BROMOscan KD determination; format: binding; conditions: Table 10
Chain of BRD2(1) (P25440 74-180): as the sequence (P25440 74-180) above
Source text: (§6) DiscoverX® can screen compounds against all ˜42 bromodomains (a service called BROMOscan) and perform follow-up KD determination. This service is considered the industrial standard for bromodomain inhibitor comparisons. […] Dots are symbolic of inhibition of the compound at this concentration; the larger the size of the dot, the greater the activity of the compound. […] Though these compounds are selective for the BET family, the selectivity within the BET family is poor. The results of a competitive binding experiment between compounds 19 (left), 41 (center), and 56 (right) (at a single concentration, 1 μM) and a control for each of the bromodomains are shown in FIG. 5.

BRD2(2) = BRD2(2) (Homo sapiens (Human), UniProt P25440); test: BROMOscan KD determination; format: binding
Chain of BRD2(2) (P25440 344-453): as the sequence (P25440 344-453) above
Source text: as §6

BRDT(1) = BRDT(1) (Homo sapiens (Human), UniProt Q58F21); test: BROMOscan KD determination; format: binding; conditions: Table 10
Source text: as §6

BRDT(2) = BRDT(2) (Homo sapiens (Human), UniProt Q58F21); test: BROMOscan KD determination; format: binding
Source text: as §6

BRD3(1) = BRD3(1) (Homo sapiens (Human), UniProt Q15059); test: BROMOscan KD determination; format: binding; conditions: Table 10
Chain of BRD3(1) (Q15059 34-140): as the sequence (Q15059 34-140) above
Source text: (§7) DiscoverX® can screen compounds against all ˜42 bromodomains (a service called BROMOscan) and perform follow-up KD determination. This service is considered the industrial standard for bromodomain inhibitor comparisons.

BRD3(2) = BRD3(2) (Homo sapiens (Human), UniProt Q15059); test: BROMOscan KD determination; format: binding
Chain of BRD3(2) (Q15059 306-415): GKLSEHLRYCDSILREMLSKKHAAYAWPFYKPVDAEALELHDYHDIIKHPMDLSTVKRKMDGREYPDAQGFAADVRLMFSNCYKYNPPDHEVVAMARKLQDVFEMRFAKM
Source text: as §7

BRD4(1) = BRD4(1) (Homo sapiens (Human), UniProt O60885); test: BROMOscan KD determination; format: binding; conditions: Table 10
Source text: as §7

BRD4(2) = BRD4(2) (Homo sapiens (Human), UniProt O60885); test: BROMOscan KD determination; format: binding
Source text: as §7

Loucy = test: anti-proliferative activity; format: cell-based; conditions: Table 5
Protocol: as §4, §5

[7] = test system: neural crest tumor cell lines; test: activity versus neural crest tumor cell lines; format: cell-based; conditions: several neural crest tumor cell lines; read-out: IC50 ranges

## CC(=O)N1c2ccc(-c3ccc[nH]3)cc2[C@H](NC(=O)OC(C)C)C[C@@H]1C [compound 54]
BRD2-BD1 [1]
  pIC50: 5.81
BRD2-BD2 [2]
  pIC50: < 4.31
BRD3-BD1
  pIC50: 5.25
BRD4-BD1
  pIC50: 5.77
BRD4-BD2
  pIC50: 5.07
BRD2-BD1 [3]
  ΔG: -9.08 kcal/mol
  ΔH: -6.90 kcal/mol
  −TΔS: -2.18 kcal/mol
  pKd: 6.88
BRD2-BD2 [4]
  ΔG: -9.82 kcal/mol
  ΔH: -6.89 kcal/mol
  −TΔS: -2.92 kcal/mol
  pKd: 7.45
BRD2-BD2 [5]
  Selectivity (2-1/2-2): 3.7

## CC(=O)Nc1cccc(-c2ccc3c(c2)[C@H](Nc2ccccc2OC(F)(F)F)C[C@H](C)N3C(C)=O)c1 [compound 19]
BRD2-BD1 [1]
  EC50: 8.3 µM
BRD2-BD2 [2]
  [2(1)/2(2)]: 52
  EC50: 0.16 µM
BRD3-BD1
  pEC50: 5.27
BRD4-BD1
  EC50: 8.3 µM
BRD4-BD2
  4(1)/4(2): 59
  EC50: 0.14 µM
BRDT
  pEC50: 5.00
HDMB03 cells
  EC50: 1.14 µM
NALM-16
  EC50: > 1.7 µM
SEM cells
  EC50: 0.04 µM
[6]
  EC50: 0.11 µM
BRD2(1)
  pKd: 6.77
BRD2(2); BROMOscan KD ratio
  [2(1)/2(2)]: 48.6
BRD2(2); BROMOscan, Table 10
  pKd: 8.46
BRDT(1)
  pKd: 7.14
BRDT(2); BROMOscan KD ratio
  T(1)/T(2): 6.5
BRDT(2); BROMOscan, Table 10
  pKd: 7.96
BRD3(1)
  pKd: 6.96
BRD3(2); BROMOscan KD ratio
  3(1)/3(2): 84.6
BRD3(2); BROMOscan, Table 10
  pKd: 8.89
BRD4(1)
  pKd: 7.00
BRD4(2); BROMOscan KD ratio
  4(1)/4(2): 58.2
BRD4(2); BROMOscan, Table 10
  pKd: 8.77

## COc1ccccc1N[C@@H]1C[C@H](C)N(C(C)=O)c2ccc(-c3cccc(NC(C)=O)c3)cc21 [compound 40]
BRD2-BD1 [1]
  EC50: 4.2 µM
BRD2-BD2 [2]
  [2(1)/2(2)]: 75
  EC50: 0.06 µM
BRD3-BD1
  pEC50: 5.70
BRD4-BD1
  EC50: 6 µM
BRD4-BD2
  4(1)/4(2): 52.9
  EC50: 0.1 µM
BRDT
  pEC50: 5.04
HDMB03 cells
  EC50: 17.6 µM
Loucy
  EC50: 0.32 µM
NALM-16
  EC50: 0.26 µM
SEM cells
  EC50: 0.02 µM
[6]
  EC50: 0.49 µM
[7]
  pIC50: 6.70 to 7.30

## CC(=O)N1c2ccc(-c3ccsc3)cc2[C@H](NC(=O)OC(C)C)C[C@@H]1C [compound 53]
BRD2-BD1 [1]
  pIC50: 5.14
BRD2-BD2 [2]
  pIC50: 6.01
BRD2-BD2 [2]; Table 2, ratio BRD2-BD1/BRD2-BD2
  BD1/BD2: 7
BRD3-BD1
  pIC50: 5.51
BRD4-BD1
  pIC50: 4.85
BRD4-BD2
  pIC50: 5.34
BRD2-BD1 [3]
  ΔG: -9.43 kcal/mol
  ΔH: -7.69 kcal/mol
  −TΔS: -1.74 kcal/mol
  pKd: 7.14
BRD2-BD2 [4]
  ΔG: -10.25 kcal/mol
  ΔH: -6.92 kcal/mol
  −TΔS: -3.33 kcal/mol
  pKd: 7.77
BRD2-BD2 [5]
  Selectivity (2-1/2-2): 4.2
